Data from patent publication US5097014A, “Chromogenic tripeptides” (Behringwerke Aktiengesellschaft, priority 1986, dated 1992).
Square brackets hold non-standard residues; d marks the D form. Peptide text beside a SMILES is read from it. * marks the point of attachment. pNA = O=[N+]([O-])c1ccc(N*)cc1; pGlu = O=C1CC[C@@H](C(=O)O)N1

Tests used:
Assay type in all cases: biochemical
Conditions in all cases: substrate solution 2 mmol/l (100 μl in 1 ml), tris buffer 50 mmol/l pH 8.0, 37° C.; pNA measured at 405 nm, Blue 49 at 623 nm
protein C = protein C (Homo sapiens, UniProt P04070); test: Substrate testing: cleavage of chromogenic substrate by protein C
Method: (§1) 100 μl of the enzyme solution were added to a 800 μl of buffer solution (trishydroxyaminomethane, 50 mmol/l), pH 8.0, at 37° C., and 100 μl of 2 mmol/l of substrate solution were added. pNA cleaved off was measured at 405 nm, and Blue 49 or Blue 124 was measured at 623 nm. The cleavage rates were determined in OD/minute. The relative cleavage raten, and thus the specificities of some substrates and enzymes, can be seen from Table II.

thrombin = thrombin (Homo sapiens, UniProt P00734); test: Substrate testing: cleavage of chromogenic substrate by thrombin
Method: as §1

F Xa = F Xa (Homo sapiens, UniProt P00742); test: Substrate testing: cleavage of chromogenic substrate by F Xa
Method: as §1

plasmin = plasmin (Homo sapiens, UniProt P00747); test: Substrate testing: cleavage of chromogenic substrate by plasmin
Method: as §1

kallikrein = test: Substrate testing: cleavage of chromogenic substrate by kallikrein
Method: as §1

urokinase = urokinase (Homo sapiens, UniProt P00749); test: Substrate testing: cleavage of chromogenic substrate by urokinase
Method: as §1

Sequence of protein C (P04070 212-461 limits assumed): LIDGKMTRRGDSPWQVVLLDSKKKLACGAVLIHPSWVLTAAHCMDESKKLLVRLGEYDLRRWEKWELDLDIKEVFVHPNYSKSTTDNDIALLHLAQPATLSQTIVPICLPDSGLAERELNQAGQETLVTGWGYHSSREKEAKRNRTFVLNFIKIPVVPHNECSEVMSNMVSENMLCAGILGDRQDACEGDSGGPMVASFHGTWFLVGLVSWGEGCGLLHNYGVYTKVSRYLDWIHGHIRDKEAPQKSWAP
Sequence of protein C (P04070 43-197 partner limits assumed): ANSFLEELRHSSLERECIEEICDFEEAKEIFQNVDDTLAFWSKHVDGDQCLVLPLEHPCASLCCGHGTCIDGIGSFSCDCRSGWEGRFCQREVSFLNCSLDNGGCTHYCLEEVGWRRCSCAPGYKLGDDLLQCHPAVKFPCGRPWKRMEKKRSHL
Sequence of F Xa (P00742 235-488 limits assumed): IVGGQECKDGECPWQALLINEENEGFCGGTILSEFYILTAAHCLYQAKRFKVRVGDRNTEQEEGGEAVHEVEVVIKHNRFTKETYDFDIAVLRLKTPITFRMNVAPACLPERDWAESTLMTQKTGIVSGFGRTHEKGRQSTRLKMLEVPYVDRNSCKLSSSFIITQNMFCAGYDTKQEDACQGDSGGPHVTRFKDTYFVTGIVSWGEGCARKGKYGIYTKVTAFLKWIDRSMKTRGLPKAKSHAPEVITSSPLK
Sequence of F Xa (P00742 41-179 partner limits assumed): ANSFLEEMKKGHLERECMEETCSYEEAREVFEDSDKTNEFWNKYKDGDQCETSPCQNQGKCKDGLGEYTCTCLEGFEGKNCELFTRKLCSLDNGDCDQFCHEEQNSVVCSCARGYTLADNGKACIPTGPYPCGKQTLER
Sequence of plasmin (P00747 581-810 limits assumed, species assumed): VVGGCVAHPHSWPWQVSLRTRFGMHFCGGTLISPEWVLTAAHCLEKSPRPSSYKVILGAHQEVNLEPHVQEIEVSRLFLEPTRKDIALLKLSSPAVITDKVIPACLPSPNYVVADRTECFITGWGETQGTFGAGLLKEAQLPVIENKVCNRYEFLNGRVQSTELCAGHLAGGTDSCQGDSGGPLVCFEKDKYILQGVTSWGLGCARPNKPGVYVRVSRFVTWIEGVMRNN
Sequence of plasmin (P00747 97-580 partner limits assumed, species assumed): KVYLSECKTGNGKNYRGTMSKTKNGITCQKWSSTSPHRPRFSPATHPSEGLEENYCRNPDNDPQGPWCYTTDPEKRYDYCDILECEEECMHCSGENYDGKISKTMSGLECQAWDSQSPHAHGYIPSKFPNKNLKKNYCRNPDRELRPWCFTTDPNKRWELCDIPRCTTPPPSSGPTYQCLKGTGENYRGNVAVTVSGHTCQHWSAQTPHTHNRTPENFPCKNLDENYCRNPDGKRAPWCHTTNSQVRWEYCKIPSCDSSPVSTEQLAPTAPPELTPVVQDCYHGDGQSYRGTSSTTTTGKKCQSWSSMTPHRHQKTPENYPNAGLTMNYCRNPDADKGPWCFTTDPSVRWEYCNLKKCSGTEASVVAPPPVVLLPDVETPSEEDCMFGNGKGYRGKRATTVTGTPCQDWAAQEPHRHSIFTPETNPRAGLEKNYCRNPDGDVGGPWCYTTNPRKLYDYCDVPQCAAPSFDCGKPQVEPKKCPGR

Row | Compound | cleavage rate, protein C (protein C) [OD/minute] | cleavage rate, thrombin (thrombin) [OD/minute] | cleavage rate, F Xa (F Xa) [OD/minute] | cleavage rate, plasmin (plasmin) [OD/minute] | cleavage rate, kallikrein (kallikrein) [OD/minute] | cleavage rate, urokinase (urokinase)
1 | 7-(D-phenylalanyl-L-prolyl-L-arginylamino)-3-diethylamino-8-methylphenoxazo nium triacetate [H--D--Phe--Pro--Arg--Blue 49] | 0.03 | 0.395 | 0.01 | 0.00 | 0.00 | 
2 | N=C(N)NCCC[C@H](NC(=O)[C@@H]1CCCCN1C(=O)[C@H](N)Cc1ccccc1)C(=O)Nc1ccc([N+](=O)[O-])cc1 [H--D--Phe--Pip--Arg--pNA, reference compound] | 0.075 | 0.41 | 0.025 | 0.035 | 0.11 | 
3 | N=C(N)NCCC[C@H](NC(=O)CNC(=O)[C@@H]1CCC(=O)N1)C(=O)Nc1ccc([N+](=O)[O-])cc1 [pyro--Glu--Gly--Arg--pNA, reference compound] ([pGlu]-Gly-Arg-pNA) | 0.30 | 0.00 | 0.01 | 0.01 | 0.01 | 
4 | N=C(N)NCCC[C@H](NC(=O)[C@@H]1CCCN1C(=O)[C@@H]1CCC(=O)N1)C(=O)Nc1ccc([N+](=O)[O-])cc1 [pyro--Glu--Pro--Arg--pNA, reference compound] ([pGlu]-Pro-Arg-pNA) | 0.40 | 0.41 | 0.04 | 0.53 | 0.51 | 
5 | D--Leu--Pro--Arg--Blue 49 [H--D--Leu--Pro--Arg--Blue 49] | 0.47 | 0.09 | 0.035 | 0.015 | 0.015 | 
6 | Tos--Gly--Pro--Arg--Blue 49 | 0.76 | 0.15 | 0.095 | 0.02 | 0.02 | 
7 | pyro--Glu--Pro--Arg--Blue 49 | 0.22 | 0.015 | 0.02 | 0.03 | 0.015 | 1,0 OD/minute
